Measured values from patent US20160129033A1, “COMBINATION OF RO5503781 AND CAPECITABINE FOR CANCER THERAPY” (HOFFMANN-LA ROCHE INC., priority 2013, published 2016).

System: LoVo cell line
Assay: Tumor growth inhibition and survival (ILS) in mice implanted with LoVo cell line
Assay type: in vivo
Description: The LoVo cell line was selected for implantation in mice as it is a p53 wildtype cell line that lacks MDM2 amplification or overexpression and therefore is felt to be more reflective of clinical reality of the colorectal cancer patient population of interest.
The following treatment groups were used in the study
Efficacy data was graphically represented as the mean tumor volume±standard error of the mean (SEM). In addition, tumor volumes of treated groups were presented as percentages of tumor volumes of the control groups (% T/C), using the formula: 100×((T-T0)/(C-C0)), where T represented mean tumor volume of a treated group on a specific day during the experiment, T0 represented mean tumor volume of the same treated group on the first day of treatment; C represented mean tumor volume of a control group on the specific day during the experiment, and C0 represented mean tumor volume of the same treated group on the first day of treatment.
Tumor volume (in cubic millimeters) was calculated using the ellipsoid formula: (D×(d^2))/2, where “D” represents the large diameter of the tumor and “d” represents the small diameter. In some cases, tumor regression and/or percent change in tumor volume was calculated using the formula: ((T-T0)/T0)×100, where ‘T’ represents mean tumor volume of the treated group at a particular day, and ‘T0’ represents mean tumor volume of the same treated group at initiation of treatment.
Statistical analysis was determined by the rank sum test and One Way Anova and a post-hoc Bonferroni t-test (SigmaStat, version 2.0, Jandel Scientific, San Francisco, Calif., USA). Differences between groups were considered to be significant when the probability value (p) was ≦0.05.
For survival assessment, the percent of increased life space (ILS) was calculated as: 100×[(median survival day of treated group−median survival day of control group)/median survival day of control group]. Median survival was determined utilizing Kaplan Meier survival analysis. Survival in treated groups was statistically compared with the vehicle group and survival comparisons were done between groups using the log-rank test (Graph Pad Prism, La Jolla, Calif., USA). Differences between groups were considered significant when the probability value (p) was ≦0.05.

[1] = Capecitabine 200 mg/kg qd × 14 po
[2] = Capecitabine 400 mg/kg qd × 14 po

CCCCCOC(=O)Nc1nc(=O)n([C@@H]2O[C@H](C)[C@@H](O)[C@H]2O)cc1F [Capecitabine, 5′-deoxy-5-fluoro-N-[(pentyloxy)-carbonyl]-cytidine]
% Increased Life Span (ILS) [1]: 40% | Mean Tumor Volume [1]: 130.14 cubic millimeters | % Inhibition (EOS) (TGI) [1]: 72% | % T/C (EOS) [1]: 28% | % Increased Life Span (ILS) [2]: 49% | Mean Tumor Volume [2]: 130.66 cubic millimeters | % Inhibition (EOS) (TGI) [2]: 88% | % T/C (EOS) [2]: 12%

COc1cc(C(=O)O)ccc1NC(=O)[C@@H]1N[C@@H](CC(C)(C)C)[C@](C#N)(c2ccc(Cl)cc2F)[C@H]1c1cccc(Cl)c1F [Compound A, 4-{[(2R,3S,4R,5S)-4-(4-Chloro-2-fluoro-phenyl)-3-(3-chloro-2-fluoro-phenyl)-4-cyano-5-(2,2-dimethyl-propyl)-pyrrolidine-2-carbonyl]-amino}-3-methoxy-benzoic acid]
% Increased Life Span (ILS) (Cpd. A 80 mg/kg qd × 5 po): 23% | Mean Tumor Volume (Cpd. A 80 mg/kg qd × 5 po): 130.39 cubic millimeters | % Inhibition (EOS) (TGI) (Cpd. A 80 mg/kg qd × 5 po): 62% | % T/C (EOS) (Cpd. A 80 mg/kg qd × 5 po): 38% | % Increased Life Span (ILS) (Cpd. A 100 mg/kg qweekly×3 po): 17% | Mean Tumor Volume (Cpd. A 100 mg/kg qweekly×3 po): 130.11 cubic millimeters | % Inhibition (EOS) (TGI) (Cpd. A 100 mg/kg qweekly×3 po): 55% | % T/C (EOS) (Cpd. A 100 mg/kg qweekly×3 po): 45%
